Test [1] concerns KIMBA mice (KIMBA-hVEGF Transgenic). Kind of test: Retinal angiogenesis (FFA leakage) in KIMBA mice. The note with it: single IVT injection 1 μg in 1 μL. Format: in vivo, mouse. From the text:
FIGS. 1A, 1B, 1C and 1D show the efficacy of a single IV dose of angio-3 in attenuating the retinal angiogenesis in KIMBA mice, which have over expression of human VEGF (KIMBA-hVEGF Transgenic). FIG. 1A is a schematic of the experimental design. FIG. 1B are images showing Fundus Fluorescein Angiography (FFA) images of baseline and weekly after post treatment. Digital color fundus photographs were taken using a MICRON IV comprehensive system for rodent retinal imaging (Phoenix Research Labs, Pleasanton, Calif.) after pupil dilatation with topical administration of 1% tropicamide (Alcon Laboratories, Inc., Fort Worth, Tex.) and 2.5% phenylephrine (Bausch and Lomb Pharmaceuticals, Inc., Tampa, Fla.) ophthalmic solutions. […] Readout is the leakage of retinal vascularization post-administration of the drug. n=6 eyes per batch; n=3 batches; Values are expressed as means±s.e.m., **P<0.01, *P<0.05, student's t-test. […] All imaging was performed with a laser-scanning confocal fluorescence microscope.
FIGS. 2A, 2B, 2C and 2D show the efficacy of a single IVT dose of angio-3 and Eylea (anti-VEGF), positive control in attenuating the retinal angiogenesis in KIMBA mice. […] Readout is the leakage of retinal vascularization post-administration of the drug. n=10 eyes per batch; n=2 batches; Values are expressed as means±s.e.m., **P<0.01, *P<0.05, student's t-test. […]

Test [2] deals with laser-induced CNV in Cynomolgus monkeys. As to the kind of experiment: Laser-induced CNV model in Cynomolgus monkeys (wet AMD model). Format: in vivo, Cynomolgus monkey. The following applies: 2 mg Angio-3, 2 mg and 4 mg PeptideQ, 2 mg Eylea, single IVT. Here is the method:
FIGS. 25A, 25B, 25C, 25D, 25E, and 25F show the results of testing in a laser-induced chorodial neovascularization (CNV) model in Cynomolgus moneys developed as an experimental model of wet AMD. FIG. 25A is a schematic of the study design. FIG. 25B are representative fundus fluorescein angiography (FFA) images of all groups. FIG. 25C is a graph showing change in mean lesion grade of the eye in monkeys treated with a single dose 2 mg of Angio-3, dose 2 mg of anti-VEGF (Eylea), 2 mg of peptide (Q2) and 4 mg of peptide (Q4) and control. […] FIG. 25E is a graph of laser area quantified from the FFA images by ImageJ software. FIG. 25F are graphs of laser volume quantified from PS-OCT images by ImageJ software.
A laser-induced choroidal neovascularization (CNV) model was developed and validated in Cynomolgus monkeys as experimental model of wet AMD. […] The development of active CNV was assessed by fluorescein angiography, at Day 14 the baseline degree of neovascularization and leakiness were measured and the final fluorescein angiography assessment was performed on Day 28. Leakage area was quantified by ImageJ software. The laser volume was quantified by Spectralis-Heidelberg software using SD-OCT images.

As for “Eylea: Eylea (anti-VEGF), positive control; clinical compound [reference compound]”, the “duration of effect in attenuating retinal angiogenesis post treatment” value in test [1] stood at 4 weeks. In test [2], the “comparative efficacy between treatment groups” value is “superior efficacy as compared to test peptides”.

(Values after patent US11266710B2, “Angio-3 for treatment of retinal angiogenic diseases” (SINGAPORE HEALTH SERVICES PTE LTD, priority 2017, dated 2022).)
